Measured values taken from PubChem BioAssay AID1918991 (Molecular Pharmacology Branch, DTP, NCI, 2023).
“And” between values parts separate entries of the source, which are not always exact repeats. Identical values can stand only once.

Tested on: 186277-243-T-J2-PDC complex spheroid growth
Experiment: Anticancer human tumor 186277-243-T-J2-PDC patient-derived colon adenocarcinoma cell line growth inhibition [AhR]
Details: for IC50: curve of first compound; for viability, T/C: stronger effect = lower value
Procedure, shortened: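 Spheroids combined tumor cells with HUVEC endothelial cells and human MSCs as stroma. AhR antagonists were paired with standard or investigational drugs, each dosed in half-log steps down from near clinical Cmax, or from 10 microM where Cmax was unknown.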
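Note: spheroids exposed to compounds for seven days before the viability read.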
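Throughout, for viability, T/C: luminescent signal used as a stand-in for viable cell amount; 100% = DMSO vehicle control wells.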

Nc1ncn(C2CC(O)C(CO)S2)c(=O)n1 (stereo unspecified) + Cc1ccccc1N=Nc1ccc(NC(=O)c2ccnn2C)c(C)c1
IC50 (second compound 0.1 µM): > 300 nM
IC50 (second compound 0.316 µM): > 300 nM
IC50 (second compound 1 µM): > 300 nM
IC50 (second compound 3.16 µM): > 300 nM
IC50 (second compound 10 µM): > 300 nM
viability, T/C (second compound 0.1 µM, first compound 0.000949 µM): 97.2%
viability, T/C (second compound 0.1 µM, first compound 0.003 µM): 123%
viability, T/C (second compound 0.1 µM, first compound 0.00949 µM): 119%
viability, T/C (second compound 0.1 µM, first compound 0.03 µM): 104%
viability, T/C (second compound 0.1 µM, first compound 0.0949 µM): 132%
viability, T/C (second compound 0.1 µM, first compound 0.3 µM): 111%
viability, T/C (second compound 0.316 µM, first compound 0.000949 µM): 106%
viability, T/C (second compound 0.316 µM, first compound 0.003 µM): 106%
viability, T/C (second compound 0.316 µM, first compound 0.00949 µM): 105%
viability, T/C (second compound 0.316 µM, first compound 0.03 µM): 109%
viability, T/C (second compound 0.316 µM, first compound 0.0949 µM): 109%
viability, T/C (second compound 0.316 µM, first compound 0.3 µM): 116%
viability, T/C (second compound 1 µM, first compound 0.000949 µM): 103%
viability, T/C (second compound 1 µM, first compound 0.003 µM): 109%
viability, T/C (second compound 1 µM, first compound 0.00949 µM): 100%
viability, T/C (second compound 1 µM, first compound 0.03 µM): 127%
viability, T/C (second compound 1 µM, first compound 0.0949 µM): 127%
viability, T/C (second compound 1 µM, first compound 0.3 µM): 108%
viability, T/C (second compound 3.16 µM, first compound 0.000949 µM): 108%
viability, T/C (second compound 3.16 µM, first compound 0.003 µM): 104%
viability, T/C (second compound 3.16 µM, first compound 0.00949 µM): 107%
viability, T/C (second compound 3.16 µM, first compound 0.03 µM): 106%
viability, T/C (second compound 3.16 µM, first compound 0.0949 µM): 117%
viability, T/C (second compound 3.16 µM, first compound 0.3 µM): 120%
viability, T/C (second compound 10 µM, first compound 0.000949 µM): 96.5%
viability, T/C (second compound 10 µM, first compound 0.003 µM): 102%
viability, T/C (second compound 10 µM, first compound 0.00949 µM): 102%
viability, T/C (second compound 10 µM, first compound 0.03 µM): 99.5%
viability, T/C (second compound 10 µM, first compound 0.0949 µM): 93%
viability, T/C (second compound 10 µM, first compound 0.3 µM): 90.1%

Nc1ccn(C2OC(CO)C(O)C2(F)F)c(=O)n1 (stereo unspecified) + Cc1cncc(-c2nc(NCCc3c[nH]c4ccccc34)c3ncn(C(C)C)c3n2)c1
IC50 (second compound 0.1 µM): < 31.6 nM
IC50 (second compound 0.316 µM): < 31.6 nM
IC50 (second compound 1 µM): < 31.6 nM
IC50 (second compound 3.16 µM): < 31.6 nM
IC50 (second compound 10 µM): < 31.6 nM
viability, T/C (second compound 0.1 µM, first compound 0.0316 µM): 7.18%
viability, T/C (second compound 0.1 µM, first compound 0.1 µM): 8.73%
viability, T/C (second compound 0.1 µM, first compound 0.316 µM): 9.08%
viability, T/C (second compound 0.1 µM, first compound 1 µM): 7.46%
viability, T/C (second compound 0.1 µM, first compound 3.16 µM): 9.53%
viability, T/C (second compound 0.1 µM, first compound 10 µM): 8.43%
viability, T/C (second compound 0.316 µM, first compound 0.0316 µM): 7.58%
viability, T/C (second compound 0.316 µM, first compound 0.1 µM): 7.59%
viability, T/C (second compound 0.316 µM, first compound 0.316 µM): 8.77%
viability, T/C (second compound 0.316 µM, first compound 1 µM): 7.4%
viability, T/C (second compound 0.316 µM, first compound 3.16 µM): 9.8%
viability, T/C (second compound 0.316 µM, first compound 10 µM): 10.2%
viability, T/C (second compound 1 µM, first compound 0.0316 µM): 8.42%
viability, T/C (second compound 1 µM, first compound 0.1 µM): 8.73%
viability, T/C (second compound 1 µM, first compound 0.316 µM): 8.67%
viability, T/C (second compound 1 µM, first compound 1 µM): 8.54%
viability, T/C (second compound 1 µM, first compound 3.16 µM): 10.4%
viability, T/C (second compound 1 µM, first compound 10 µM): 9.89%
viability, T/C (second compound 3.16 µM, first compound 0.0316 µM): 8.88%
viability, T/C (second compound 3.16 µM, first compound 0.1 µM): 9.87%
viability, T/C (second compound 3.16 µM, first compound 0.316 µM): 8.78%
viability, T/C (second compound 3.16 µM, first compound 1 µM): 9.16%
viability, T/C (second compound 3.16 µM, first compound 3.16 µM): 10.2%
viability, T/C (second compound 3.16 µM, first compound 10 µM): 11.2%
viability, T/C (second compound 10 µM, first compound 0.0316 µM): 9.79%
viability, T/C (second compound 10 µM, first compound 0.1 µM): 9.68%
viability, T/C (second compound 10 µM, first compound 0.316 µM): 7.97%
viability, T/C (second compound 10 µM, first compound 1 µM): 8.56%
viability, T/C (second compound 10 µM, first compound 3.16 µM): 9.28%
viability, T/C (second compound 10 µM, first compound 10 µM): 10.2%

COc1cc(C2c3cc4c(cc3C(OC3OC5COC(C)OC5C(O)C3O)C3COC(=O)C23)OCO4)cc(OC)c1O (stereo unspecified)
viability, T/C (compound 0.0316 µM): 97.2% and 86.2% and 92.7%
viability, T/C (compound 0.1 µM): 126% and 88.1% and 97.8%
viability, T/C (compound 0.316 µM): 118% and 44.4% and 142%
viability, T/C (compound 1 µM): 58.8% and 22.6% and 97.1%
viability, T/C (compound 3.16 µM): 51.1% and 17.5% and 85.7%
viability, T/C (compound 10 µM): 25.6% and 10% and 46.4%
